Like-named read-outs stand apart in the source and are kept apart here.
Tests used:
[1] = target: T1, cGMP-dependent protein kinase (PKG) (PF3D7_1436600) (Plasmodium falciparum, UniProt Q8I719); assay: Competitive chemoproteomics in Pf lysates (Kinobeads / bead-immobilized compound); format: binding; details: lysates exposed to 40 μM of the same compound vs vehicle
T1 construct: The beads were incubated at 4°C for 1 h with either 0.1 ml (0.3 mg) Pf blood stage extract; endogenous in cells; host or cells: P. falciparum asexual blood-stage parasites (trophozoite stage), saponin-freed and lysed
T1 sequence (Q8I719 whole entry): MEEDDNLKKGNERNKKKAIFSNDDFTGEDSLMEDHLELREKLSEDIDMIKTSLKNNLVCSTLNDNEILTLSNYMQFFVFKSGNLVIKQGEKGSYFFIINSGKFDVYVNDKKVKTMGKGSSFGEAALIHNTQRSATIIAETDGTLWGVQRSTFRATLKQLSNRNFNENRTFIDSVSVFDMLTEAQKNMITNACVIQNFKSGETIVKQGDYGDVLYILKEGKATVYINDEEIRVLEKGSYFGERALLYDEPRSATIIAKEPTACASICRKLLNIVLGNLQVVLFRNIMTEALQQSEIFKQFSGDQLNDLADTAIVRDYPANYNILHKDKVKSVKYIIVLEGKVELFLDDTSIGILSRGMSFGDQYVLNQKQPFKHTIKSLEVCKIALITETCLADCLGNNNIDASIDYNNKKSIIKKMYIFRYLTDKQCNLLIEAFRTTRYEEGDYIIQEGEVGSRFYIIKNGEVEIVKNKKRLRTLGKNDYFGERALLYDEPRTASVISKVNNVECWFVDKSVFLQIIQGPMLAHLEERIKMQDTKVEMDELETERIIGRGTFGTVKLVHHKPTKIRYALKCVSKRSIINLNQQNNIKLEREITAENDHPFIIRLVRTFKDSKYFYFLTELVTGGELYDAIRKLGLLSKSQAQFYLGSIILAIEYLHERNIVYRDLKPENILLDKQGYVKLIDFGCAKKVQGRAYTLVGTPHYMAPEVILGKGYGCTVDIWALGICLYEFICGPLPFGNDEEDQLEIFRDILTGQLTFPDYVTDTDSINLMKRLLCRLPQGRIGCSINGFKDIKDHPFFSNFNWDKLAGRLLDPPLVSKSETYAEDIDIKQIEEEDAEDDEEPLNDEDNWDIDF
Description: Parasite cultures at the trophozoite stage were harvested, washed twice in RPMI 1640 medium (Gibco), and lysed by the addition of saponin to a final concentration of 0.1% for 5 min at room temperature. Free parasites were sedimented by centrifugation (3500 rpm for 10 min), washed three times with phosphate-buffered saline, and stored at −80°C. Parasites were resuspended in cell lysis buffer (50 mM tris-HCl (pH 7.5), 5% glycerol, 1.5 mM MgCl2, 1.5 mM NaCl, 1 mM Na3PO4, 25 mM sodium fluoride, 0.8% NP-40, EDTA-free protease inhibitor cocktail tablets (Roche Diagnostics), and 1 mM DTT) and disrupted by sonication (Sonics Vibra-Cell) using two 30-s cycles on ice at half-amplitude. […]
Kinobeads were prepared by immobilizing Bis-(III) indolyl-maleimide, purvalanol B, staurosporine and CZC8004, and the analogs of PD173955, sunitinib and vandetanib on NHS-activated Sepharose 4 beads (Amersham) ([Bantscheff et al., 2007]). […] 10 samples were measured in parallel (TMT 10-plex ([Werner et al., 2014])) to generate values for the affinity of the beads to the bound proteins (“depletion” values, 4 samples) and to generate IC50 values (6 samples) in a single experiment. Apparent dissociation constants were determined after accounting for protein depletion by the beads ([Bantscheff et al., 2011]). […]

[2] = tested on: Pf ABS parasites; assay: Light microscopy of ABS development; format: cell-based, Plasmodium falciparum; details: ring-stage parasites exposed to 350 nM (approximately 3 × IC50)
[3] = tested on: P. berghei ANKA liver stages; assay: Liver stage susceptibility, luciferase-based assay (PbLuc sporozoites in HepG2); format: cell-based; details: Plasmodium berghei
Description: P. berghei ANKA infections were maintained in BALB/c female mice (The Jackson Laboratory) infected via intraperitoneal injection of 2×10^7 blood stage parasites. Infected mice were provided water ad libitum and housed in standard cages in an animal facility room maintained at 22°C and 50-70% relative humidity. Anopheles stephensi mosquitoes were housed in an insectary maintained at 27°C, 80% humidity and a 12:12 light:dark schedule. […] 24 h before infection, 384-well plates (Greiner Bio) were seeded with 1x10^4 HepG2-A16-CD81^EGFP cells in 30 μL of assay medium (DMEM without Phenol Red (Life Technologies, CA), 5% FBS and 5x Pen-Strep Glutamine (Life Technologies, CA)). Luciferase-expressing Pb (PbLuc) sporozoites were freshly obtained by dissecting salivary glands of infected Anopheles stephensi mosquitoes and 5x10^3 sporozoites in 30 μL were added to each well. Plates were centrifuged for 5 min at 330g and incubated for 2 h at 37°C and 5% CO2. Unbound sporozoites were then removed by centrifugation and washing and 30 μL of fresh medium was added. […] Luminescence was measured using an Envision Multilabel Reader (PerkinElmer) to assess parasite growth as a function of compound concentrations.

[4] = tested on: 3D7-A10 parasites (rings, trophozoites, schizonts); assay: ABS stage-specific 8-h exposure assay on highly synchronized parasites; format: cell-based, Plasmodium falciparum; details: for IC50: 3D7-A10, 8 h exposure
Description: Synchronicity was achieved using three rounds of sorbitol treatment on early rings, spaced 48 h apart, followed by magnetic purification of segmented schizonts following the final sorbitol treatment. Parasites were highly synchronous to within a 3 h window of development. Assays were repeated on at least three independent occasions (each with technical duplicates) and statistical significance was assessed using Mann Whitney U tests.

[5] = tested on: mature (stage V) NF54 gametocytes; assay: Gametocyte susceptibility, saponin lysis-based MitoTracker high-content imaging assay; format: cell-based; details: Plasmodium falciparum, saponin lysis-based sexual stage assay, 72 h
Description: This was determined using two separate assays. The first involved MitoTracker staining and high-content imaging. Mature (stage V) gametocytes were generated from NF54 ABS cultures as described elsewhere ([Plouffe et al., 2016]). Briefly, asexual parasites were cultured at 5% hematocrit in O^+ human erythrocytes in serum-containing complete media (RPMI 1640 (Life Technologies), 0.05 mg/ml gentamicin (Life Technologies), 0.014 mg/ml hypoxanthine (Sigma), 38.4 mM HEPES (Sigma), 0.2% (w/v) sodium bicarbonate (Sigma), D-glucose 0.2% (w/v) (Sigma), 3.4 mM sodium hydroxide (Sigma), 4.3% (v/v) heat-inactivated human serum (O^+, Interstate Blood bank), and 0.2% (w/v) AlbuMAX® II (Life Technologies)). […] The second assay assessed gametocyte susceptibility using a luciferase-based assay with 3D7elo1-pfs16-CBG99 transgenic parasites ([Cevenini et al., 2014]). […] Cell viability was then evaluated by adding a non-lysing formulation of 0.5 mM D-Luciferin substrate and measuring luciferase activity for 0.5 s on a Varioskan™ Flash Multimode Reader (Thermo Scientific). The percent of viability was calculated as a function of drug concentration and IC50 values were derived by non-linear regression analysis and curve fitting (using GraphPad Prism 6.0).

In the case of `CC(C)(CN)c1nc(-c2ccc(Cl)c(O)c2)c(-c2ccncc2)[nH]1` [MMV030084], the “PKG pull-down by bead-bound compound” value [1] is reported as “pulled down”, the “ABS development by light microscopy” value [2] is reported as “halted at the schizont stage” and the IC50 ([3]; HepG2, compound added 2 h after infection, read-out: IC50, liver stage, post-invasion exposure) is reported as greater than 10000 nM. For the same compound, the IC50 ([3]; luciferase-expressing Pb parasites, host HepG2 liver cells, pre-invasion exposure, read-out: IC50, liver stage) was 199 nM, the IC50 ([4]; first shift of biphasic curve, read-out: Mean IC50, schizont biphasic shift 1) was 0.0956 µM and the IC50 ([4]; second shift of biphasic curve, read-out: Mean IC50, schizont activity shift 2) was 3.93 µM. The IC50 ([4]; read-out: Mean IC50, late ring stage activity) was 5.87 µM, the “Survival at plateau phase of biphasic schizont curve” value ([4]; 3D7-A10 schizonts, 8 h exposure) was ~ 58% and the IC50 ([4]; Plasmodium falciparum, 3D7, 8 h, early and late rings averaged, read-out: Average IC50, rings) was 5.56 µM. It also gave an IC50 ([4]; Plasmodium falciparum, 3D7, 8 h, early and late trophozoites averaged, read-out: Average IC50, trophozoites) of 3.25 µM, an IC50 ([4]; Plasmodium falciparum, 3D7, 8 h, first shift of biphasic curve, read-out: Mean IC50, schizont biphasic shift 1) of 0.096 µM and an IC50 ([4]; Plasmodium falciparum, 3D7, 8 h, second shift of biphasic curve, read-out: Mean IC50, schizont activity shift 2) of 3.93 µM. The IC50 ([4]; Plasmodium falciparum, 3D7, 8 h, read-out: Mean IC50, early ring stage activity) was 5.25 µM, the IC50 ([4]; Plasmodium falciparum, 3D7, 8 h, read-out: Mean IC50, early trophozoite activity) was 3.21 µM and the IC50 ([4]; Plasmodium falciparum, 3D7, 8 h, read-out: Mean IC50, late ring stage activity) was 5.87 µM. It also gave an IC50 ([4]; Plasmodium falciparum, 3D7, 8 h, read-out: Mean IC50, late trophozoite activity) of 3.28 µM and an IC50 [5] greater than 40 µM.

Source: PMC7369637, “Inhibition of Resistance-Refractory P. falciparum Kinase PKG Delivers Prophylactic, Blood Stage, and Transmission-Blocking Antiplasmodial Activity” (Cell Chemical Biology, 2020)
